Each structure is given as a SMILES string. The source made the active and inactive calls. No cut-off for these calls is given here.

The target in experiment [1] is Cannabinoid receptor 2 (Homo sapiens) (UniProt P34972). Briefly: Inhibition of Cannabinoid CB2 at 10.0 µM in the Eurofins Panlabs Safety Screen. The settings on record: Compound concentration 10.0 uM.
The target of experiment [2] is Dual specificity protein kinase CLK1 (Homo sapiens) (UniProt P49759). Put plainly: Inhibition of CLK1(h) at 10.0 µM in the Eurofins Kinase panel. The settings on record: Compound concentration 10.0 uM.
Sequence of Dual specificity protein kinase CLK1 (Homo sapiens) (P49759 whole entry, looked up): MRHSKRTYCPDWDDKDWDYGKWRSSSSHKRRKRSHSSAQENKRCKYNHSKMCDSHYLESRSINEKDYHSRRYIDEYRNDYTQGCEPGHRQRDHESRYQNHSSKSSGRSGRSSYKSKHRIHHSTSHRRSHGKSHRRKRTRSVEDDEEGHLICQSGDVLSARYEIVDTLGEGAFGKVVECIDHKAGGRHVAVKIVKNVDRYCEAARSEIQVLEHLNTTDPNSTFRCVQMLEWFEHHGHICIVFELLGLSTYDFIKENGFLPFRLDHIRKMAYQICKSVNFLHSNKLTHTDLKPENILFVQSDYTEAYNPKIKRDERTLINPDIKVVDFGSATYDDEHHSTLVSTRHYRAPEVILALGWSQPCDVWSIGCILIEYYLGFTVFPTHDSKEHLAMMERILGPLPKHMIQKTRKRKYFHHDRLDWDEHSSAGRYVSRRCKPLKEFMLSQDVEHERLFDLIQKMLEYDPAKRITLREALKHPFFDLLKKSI
Experiment [3] addresses T1, Alpha-2C adrenergic receptor (Homo sapiens) (UniProt P18825).
T1 sequence (whole entry): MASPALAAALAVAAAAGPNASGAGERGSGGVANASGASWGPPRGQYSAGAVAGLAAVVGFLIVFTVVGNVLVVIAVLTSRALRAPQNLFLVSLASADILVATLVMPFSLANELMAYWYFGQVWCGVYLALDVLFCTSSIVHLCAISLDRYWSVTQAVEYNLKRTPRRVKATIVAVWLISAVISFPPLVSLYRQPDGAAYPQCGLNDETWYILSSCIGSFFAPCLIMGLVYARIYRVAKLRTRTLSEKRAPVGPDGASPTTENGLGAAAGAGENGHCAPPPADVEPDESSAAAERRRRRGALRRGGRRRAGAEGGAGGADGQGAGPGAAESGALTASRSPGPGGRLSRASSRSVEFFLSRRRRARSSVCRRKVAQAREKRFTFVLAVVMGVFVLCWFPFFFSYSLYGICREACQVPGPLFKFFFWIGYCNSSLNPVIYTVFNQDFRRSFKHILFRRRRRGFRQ
Put plainly: Inhibition of Adrenergic alpha2C at 10.0 µM in the Eurofins Panlabs Safety Screen. The note with it: Compound concentration 10.0 uM.

Experiment [4] addresses T2, 5-hydroxytryptamine receptor 2C (Homo sapiens) (UniProt P28335).
T2 sequence (whole entry): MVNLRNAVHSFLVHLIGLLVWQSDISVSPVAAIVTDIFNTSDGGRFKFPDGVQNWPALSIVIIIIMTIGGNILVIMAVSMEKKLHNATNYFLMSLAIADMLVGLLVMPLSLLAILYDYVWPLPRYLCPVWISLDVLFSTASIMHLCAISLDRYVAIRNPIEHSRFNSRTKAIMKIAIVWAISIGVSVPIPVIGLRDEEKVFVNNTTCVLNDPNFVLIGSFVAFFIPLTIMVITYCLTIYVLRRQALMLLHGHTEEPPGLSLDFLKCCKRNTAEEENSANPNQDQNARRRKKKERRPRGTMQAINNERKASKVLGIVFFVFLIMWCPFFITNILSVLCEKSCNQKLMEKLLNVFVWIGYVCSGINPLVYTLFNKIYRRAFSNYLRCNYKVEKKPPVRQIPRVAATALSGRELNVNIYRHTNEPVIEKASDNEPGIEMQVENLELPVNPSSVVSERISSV
The note with it: Compound concentration 10.0 uM.

In experiment [5] the target is Androgen receptor (Homo sapiens) (UniProt P10275). Briefly: Inhibition of Androgen (Testosterone) at 10.0 µM in the Eurofins Panlabs Safety Screen. The settings on record: Compound concentration 10.0 uM.
Sequence of Androgen receptor (Homo sapiens) (P10275 whole entry): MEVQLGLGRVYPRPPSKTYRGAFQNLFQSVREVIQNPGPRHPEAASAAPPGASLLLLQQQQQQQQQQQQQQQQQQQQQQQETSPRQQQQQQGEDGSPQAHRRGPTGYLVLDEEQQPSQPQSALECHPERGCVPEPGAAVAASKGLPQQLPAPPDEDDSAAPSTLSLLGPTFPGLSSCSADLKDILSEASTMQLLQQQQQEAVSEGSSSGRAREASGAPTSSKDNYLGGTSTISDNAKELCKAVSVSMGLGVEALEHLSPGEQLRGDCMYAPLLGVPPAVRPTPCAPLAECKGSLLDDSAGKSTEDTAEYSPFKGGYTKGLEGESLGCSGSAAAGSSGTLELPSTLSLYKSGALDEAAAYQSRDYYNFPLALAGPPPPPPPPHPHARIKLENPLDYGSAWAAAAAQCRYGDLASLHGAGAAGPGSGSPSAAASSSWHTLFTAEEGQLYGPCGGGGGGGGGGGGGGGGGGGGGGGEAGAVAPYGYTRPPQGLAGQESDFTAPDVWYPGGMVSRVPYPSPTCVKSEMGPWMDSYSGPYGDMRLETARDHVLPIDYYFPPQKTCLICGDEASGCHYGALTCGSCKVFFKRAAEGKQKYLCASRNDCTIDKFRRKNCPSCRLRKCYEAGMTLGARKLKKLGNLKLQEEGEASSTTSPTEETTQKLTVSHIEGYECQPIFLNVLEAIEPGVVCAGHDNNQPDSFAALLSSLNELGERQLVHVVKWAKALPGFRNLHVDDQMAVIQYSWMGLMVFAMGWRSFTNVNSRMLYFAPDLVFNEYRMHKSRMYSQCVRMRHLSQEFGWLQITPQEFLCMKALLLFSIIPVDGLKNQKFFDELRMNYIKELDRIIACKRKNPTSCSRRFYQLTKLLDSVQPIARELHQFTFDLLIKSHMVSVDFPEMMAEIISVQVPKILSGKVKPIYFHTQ
The target in a further experiment is Histamine H3 receptor (Homo sapiens, UniProt Q9Y5N1). The settings on record: Compound concentration 10.0 uM.
Sequence of Histamine H3 receptor (Q9Y5N1 whole entry): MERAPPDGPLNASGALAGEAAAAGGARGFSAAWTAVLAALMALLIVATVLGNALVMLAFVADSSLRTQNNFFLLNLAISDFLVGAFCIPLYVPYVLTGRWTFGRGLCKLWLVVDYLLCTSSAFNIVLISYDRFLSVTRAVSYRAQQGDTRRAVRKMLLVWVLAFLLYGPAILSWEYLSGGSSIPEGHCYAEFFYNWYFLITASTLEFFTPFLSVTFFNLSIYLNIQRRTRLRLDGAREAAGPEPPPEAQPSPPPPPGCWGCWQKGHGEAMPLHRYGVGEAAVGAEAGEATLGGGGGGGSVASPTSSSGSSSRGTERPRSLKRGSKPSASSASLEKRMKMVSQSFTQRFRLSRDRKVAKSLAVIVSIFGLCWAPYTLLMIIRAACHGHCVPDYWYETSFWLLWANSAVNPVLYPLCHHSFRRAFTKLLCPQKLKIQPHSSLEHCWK
Experiment [6] addresses Beta-3 adrenergic receptor (Homo sapiens) (UniProt P13945). Put plainly: Inhibition of Adrenergic beta3 at 10.0 µM in the Eurofins Panlabs Safety Screen. The note with it: Compound concentration 10.0 uM.
In experiment [7] the target is Methionine aminopeptidase 2 (Homo sapiens, UniProt P50579). Put plainly: Degradation in HUVEC cells (WB) (Western Blot (WB)). It is filed as functional, cell-based. Background: Immunoblotting shows a protein as a band on a membrane.
Sequence of Methionine aminopeptidase 2 (P50579 whole entry): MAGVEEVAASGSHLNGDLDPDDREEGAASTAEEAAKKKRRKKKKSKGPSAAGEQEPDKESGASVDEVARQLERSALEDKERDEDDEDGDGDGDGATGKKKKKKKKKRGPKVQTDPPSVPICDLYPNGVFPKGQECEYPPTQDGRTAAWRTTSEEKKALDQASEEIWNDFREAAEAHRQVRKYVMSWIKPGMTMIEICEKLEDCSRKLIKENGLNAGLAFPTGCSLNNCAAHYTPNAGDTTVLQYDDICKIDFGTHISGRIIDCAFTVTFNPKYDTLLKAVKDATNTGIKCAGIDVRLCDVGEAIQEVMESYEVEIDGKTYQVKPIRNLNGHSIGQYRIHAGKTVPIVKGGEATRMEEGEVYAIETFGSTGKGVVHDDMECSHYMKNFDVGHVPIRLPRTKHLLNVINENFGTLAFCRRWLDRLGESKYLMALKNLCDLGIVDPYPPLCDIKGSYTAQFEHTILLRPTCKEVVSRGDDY
In experiment [8] the target is GABA-A receptor; anion channel (Rattus norvegicus) (UniProt O09028+P15431+P18506+P18508+P19969+P20236+P23574+P23576+P28471+P28473+P30191+P62813+P63079+P63138+Q91ZM7+Q9ES14). The settings on record: Compound concentration 10.0 uM.
The target of experiment [9] is Motilin receptor (Homo sapiens) (UniProt O43193). Put plainly: Inhibition of Motilin at 10.0 µM in the Eurofins Panlabs Safety Screen. The settings on record: Compound concentration 10.0 uM.
Sequence of Motilin receptor (Homo sapiens) (O43193 whole entry): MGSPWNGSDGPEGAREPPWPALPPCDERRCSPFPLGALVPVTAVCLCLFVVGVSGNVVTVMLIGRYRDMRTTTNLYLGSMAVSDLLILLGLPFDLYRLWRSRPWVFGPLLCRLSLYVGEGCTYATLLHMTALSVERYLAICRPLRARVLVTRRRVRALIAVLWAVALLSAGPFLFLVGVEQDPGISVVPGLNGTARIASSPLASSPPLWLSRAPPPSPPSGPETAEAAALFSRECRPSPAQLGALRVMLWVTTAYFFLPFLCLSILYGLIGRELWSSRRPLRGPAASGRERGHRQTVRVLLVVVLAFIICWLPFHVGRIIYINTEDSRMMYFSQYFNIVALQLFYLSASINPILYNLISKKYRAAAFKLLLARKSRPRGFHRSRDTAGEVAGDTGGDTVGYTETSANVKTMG
In experiment [10] the target is Alpha-1A adrenergic receptor (Rattus norvegicus) (UniProt P43140). Briefly: Inhibition of Adrenergic alpha1A at 10.0 µM in the Eurofins Panlabs Safety Screen. The note with it: Compound concentration 10.0 uM.
Sequence of Alpha-1A adrenergic receptor (Rattus norvegicus) (P43140 whole entry): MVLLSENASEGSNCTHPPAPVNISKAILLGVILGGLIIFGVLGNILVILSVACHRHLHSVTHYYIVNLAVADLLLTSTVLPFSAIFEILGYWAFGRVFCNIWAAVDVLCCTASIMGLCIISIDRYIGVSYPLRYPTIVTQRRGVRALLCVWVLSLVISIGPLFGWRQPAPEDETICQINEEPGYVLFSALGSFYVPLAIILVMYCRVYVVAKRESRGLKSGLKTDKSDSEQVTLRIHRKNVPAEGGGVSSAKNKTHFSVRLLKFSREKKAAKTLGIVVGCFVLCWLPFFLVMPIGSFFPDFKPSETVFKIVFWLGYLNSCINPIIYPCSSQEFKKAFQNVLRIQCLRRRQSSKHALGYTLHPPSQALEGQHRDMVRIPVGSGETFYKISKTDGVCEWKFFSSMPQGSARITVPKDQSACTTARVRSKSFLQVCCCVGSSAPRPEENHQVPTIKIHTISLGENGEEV
Experiment [11] deals with T3, Muscarinic acetylcholine receptor M2 (Homo sapiens) (UniProt P08172).
T3 sequence (whole entry): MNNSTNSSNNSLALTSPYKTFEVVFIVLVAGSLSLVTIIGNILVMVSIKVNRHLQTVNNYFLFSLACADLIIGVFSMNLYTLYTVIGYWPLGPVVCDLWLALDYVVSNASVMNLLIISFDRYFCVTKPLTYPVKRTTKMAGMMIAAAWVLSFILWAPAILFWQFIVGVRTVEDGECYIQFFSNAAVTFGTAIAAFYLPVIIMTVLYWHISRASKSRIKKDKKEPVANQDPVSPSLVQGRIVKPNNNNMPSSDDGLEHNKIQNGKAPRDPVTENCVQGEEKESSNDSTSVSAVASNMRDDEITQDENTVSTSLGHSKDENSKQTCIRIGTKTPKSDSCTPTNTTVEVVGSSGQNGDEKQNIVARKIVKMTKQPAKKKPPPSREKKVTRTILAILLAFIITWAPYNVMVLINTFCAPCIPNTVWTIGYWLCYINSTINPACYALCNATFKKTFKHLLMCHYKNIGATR
Briefly: Inhibition of Muscarinic M2 at 10.0 µM in the Eurofins Panlabs Safety Screen. The note with it: Compound concentration 10.0 uM.

Experiment [12] concerns the target Tyrosine-protein kinase Blk (Homo sapiens) (UniProt P51451). Briefly: Inhibition of Blk(h) at 10.0 µM in the Eurofins Kinase panel. The settings on record: Compound concentration 10.0 uM.
For experiment [13], the target named is Histamine H2 receptor (Homo sapiens) (UniProt P25021). Put plainly: Inhibition of Histamine H2 at 10.0 µM in the Eurofins Panlabs Safety Screen. The settings on record: Compound concentration 10.0 uM.
Sequence of Histamine H2 receptor (Homo sapiens) (P25021 whole entry): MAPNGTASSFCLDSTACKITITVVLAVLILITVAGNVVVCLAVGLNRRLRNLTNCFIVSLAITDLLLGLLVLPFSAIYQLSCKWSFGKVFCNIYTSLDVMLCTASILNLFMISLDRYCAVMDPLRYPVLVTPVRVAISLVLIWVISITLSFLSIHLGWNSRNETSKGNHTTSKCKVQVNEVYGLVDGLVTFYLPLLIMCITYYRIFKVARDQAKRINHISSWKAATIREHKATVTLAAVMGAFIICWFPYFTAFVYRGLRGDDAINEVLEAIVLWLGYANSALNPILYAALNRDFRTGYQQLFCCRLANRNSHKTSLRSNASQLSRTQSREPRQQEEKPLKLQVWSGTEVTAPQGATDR
Experiment [14] deals with T2, 5-hydroxytryptamine receptor 2C (Homo sapiens). Put plainly: Inhibition of Serotonin (5-Hydroxytryptamine) 5-HT2C at 10.0 µM in the Eurofins Panlabs Safety Screen. The settings on record: Compound concentration 10.0 uM.
Experiment [15] has as its target T4, Alpha-2B adrenergic receptor (Homo sapiens) (UniProt P18089).
T4 sequence (whole entry): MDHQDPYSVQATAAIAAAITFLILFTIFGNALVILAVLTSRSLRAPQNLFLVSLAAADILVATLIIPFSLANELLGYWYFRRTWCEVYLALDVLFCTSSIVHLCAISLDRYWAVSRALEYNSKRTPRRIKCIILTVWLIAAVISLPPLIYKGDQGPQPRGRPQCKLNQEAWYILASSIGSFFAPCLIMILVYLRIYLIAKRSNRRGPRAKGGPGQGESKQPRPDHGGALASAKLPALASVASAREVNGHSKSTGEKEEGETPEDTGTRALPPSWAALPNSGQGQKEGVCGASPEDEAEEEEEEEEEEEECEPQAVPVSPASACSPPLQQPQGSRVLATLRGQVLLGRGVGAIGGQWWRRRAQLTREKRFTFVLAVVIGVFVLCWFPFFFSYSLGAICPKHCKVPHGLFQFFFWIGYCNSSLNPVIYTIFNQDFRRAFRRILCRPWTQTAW
Briefly: Inhibition of Adrenergic alpha2B at 10.0 µM in the Eurofins Panlabs Safety Screen. The settings on record: Compound concentration 10.0 uM.

Experiment [16] concerns the target 3',5'-cyclic-AMP phosphodiesterase 4D (Homo sapiens) (UniProt Q08499). Put plainly: Inhibition of Phosphodiesterase PDE4D2 at 10.0 µM in the Eurofins Panlabs Safety Screen. The note with it: Compound concentration 10.0 uM.

Sequence of Beta-3 adrenergic receptor (Homo sapiens) (P13945 whole entry, looked up): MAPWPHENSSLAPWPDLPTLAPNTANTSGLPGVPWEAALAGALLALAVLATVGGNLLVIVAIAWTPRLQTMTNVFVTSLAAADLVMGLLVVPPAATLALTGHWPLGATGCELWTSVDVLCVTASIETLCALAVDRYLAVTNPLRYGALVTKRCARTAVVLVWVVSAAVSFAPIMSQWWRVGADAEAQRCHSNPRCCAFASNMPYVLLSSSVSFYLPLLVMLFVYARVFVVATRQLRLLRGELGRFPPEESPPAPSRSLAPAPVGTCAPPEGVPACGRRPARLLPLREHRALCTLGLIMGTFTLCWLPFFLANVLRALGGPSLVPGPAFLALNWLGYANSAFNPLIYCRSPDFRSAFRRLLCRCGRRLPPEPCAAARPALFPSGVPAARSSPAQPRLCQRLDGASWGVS
Sequence of 3',5'-cyclic-AMP phosphodiesterase 4D (Homo sapiens) (Q08499 whole entry): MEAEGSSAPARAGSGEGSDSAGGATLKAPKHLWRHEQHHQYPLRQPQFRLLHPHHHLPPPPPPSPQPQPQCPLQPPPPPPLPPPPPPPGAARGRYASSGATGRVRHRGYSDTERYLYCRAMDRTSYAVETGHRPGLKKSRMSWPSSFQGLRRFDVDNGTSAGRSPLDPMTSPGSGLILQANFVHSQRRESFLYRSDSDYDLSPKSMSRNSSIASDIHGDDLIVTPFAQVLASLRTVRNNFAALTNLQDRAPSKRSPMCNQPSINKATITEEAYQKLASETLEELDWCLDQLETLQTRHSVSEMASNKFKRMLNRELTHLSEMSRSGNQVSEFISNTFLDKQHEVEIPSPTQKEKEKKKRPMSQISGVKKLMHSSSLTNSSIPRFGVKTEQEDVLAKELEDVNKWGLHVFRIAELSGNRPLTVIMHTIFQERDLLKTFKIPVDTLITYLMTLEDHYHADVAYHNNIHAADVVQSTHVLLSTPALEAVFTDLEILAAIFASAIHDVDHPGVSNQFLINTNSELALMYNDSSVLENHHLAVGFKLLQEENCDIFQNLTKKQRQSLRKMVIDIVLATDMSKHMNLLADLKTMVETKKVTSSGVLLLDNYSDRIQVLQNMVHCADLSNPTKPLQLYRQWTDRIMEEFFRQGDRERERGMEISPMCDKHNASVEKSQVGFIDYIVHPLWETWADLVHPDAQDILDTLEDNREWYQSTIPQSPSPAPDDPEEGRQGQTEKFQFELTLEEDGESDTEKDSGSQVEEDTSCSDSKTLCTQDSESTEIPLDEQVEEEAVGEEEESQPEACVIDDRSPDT

By inhibition is commonly meant the relative decrease from the control value, in per cent. As usually defined, the DC50 is the concentration at which degradation of the target reaches its halfway point. Take `O=C1NCCCC1N1Cc2cc(C3CCN(C(=O)CCCCCN4CCC(c5ccc(Oc6nn7cnnc7c7c6CCCC7)cc5)CC4)CC3)ccc2C1=O` (centres undefined): the inhibition in [1] was 12%; in experiment [2] it was 16.7%; in experiment [3], 62%; in [4], 3.95%; in experiment [5] it was -2%; on Histamine H3 receptor it was 91.5%. For the same compound, the inhibition in experiment [6] is 13%; in experiment [8], 44.6%; in experiment [9] it was 10%; in [10], 21%; in [11], 47%; in experiment [12] it was 26.1%. Also, the inhibition in experiment [13] turned out to be 36%; in [14], 2%; in [15] it was 8%; in [16], 18%. The DC50 in experiment [7] is > 100 nM (not active).

For `O=C1CCC(N2Cc3cc(C4CCN(C(=O)CCCCCN5CCC(c6ccc(Oc7nn8cnnc8c8c7CCCC8)cc6)CC5)CC4)ccc3C2=O)C(=O)N1` (centres undefined), the inhibition in experiment [1] was 14%; in experiment [2], 13.9%; in experiment [3] it was 79%; in [4], 5.83%; in experiment [5] it was -6%; at Histamine H3 receptor it was 100%. Besides, the inhibition is 16% in experiment [6]; 36.6% in [8]; 6% in experiment [9]; 32% in experiment [10]; 53% in [11]; 13.9% in experiment [12]. Moreover, the inhibition in experiment [13] is 32%; in [14] it was 14%; in [15] it was 19%; in experiment [16], 10%. Besides, the DC50 in experiment [7] was 0.2 nM (active).

For the origin of these results see ChEMBL document CHEMBL5463725, “Data for DCP probe BAY-277” (2023).
